Test results from ChEMBL document CHEMBL5608179, “Triptonide induces apoptosis and inhibits the proliferation of ovarian cancer cells by activating the p38/p53 pathway and autophagy” (Bioorg Med Chem, 2024).
The source made the active and inactive calls. No cut-off for these calls is given here.

What was measured:
A2780 [1] = assay: Induction of cell cycle arrest at S phase in human A2780 cells assessed as increase in CDK2 proteins measured after 24 hrs by Western blot analysis; format: functional, cell-based; details: dose 5-20 nM
A2780 [2] = assay: Induction of cell cycle arrest in human A2780 cells assessed as accumulation of cells at S phase at 4 nM measured after 24 hrs by PI staining based Cell Cycle Analysis Kit (KeyGEN) (reference value: 15%); format: functional
A2780 [3] = assay: Cytotoxicity against human A2780 cells assessed as cell viability in presence of bafilomycin A1 upto 60 nM measured after 48 hrs by MTT assay; format: functional, cell-based
A2780 [4] = assay: Induction of apoptosis in human A2780 cells assessed as increase in cleaved PARP level measured after 12 to 48 hrs by Western blot analysis; format: functional, cell-based; details: dose 5-20 nM, time 12-48 hrs
[5] = Toxicity in BALB/c-nu mouse subcutaneously inoculated with human A2780 cells assessed as change in body weight at 3 to 5 mg/kg, ip administered every day for 20 days; format: organism-based; details: in vivo, 480 h, dose 3-5 mg/kg, time 20 day
A2780 [6] = assay: Induction of cell cycle arrest in human A2780 cells assessed as accumulation of cells at S phase at 4 nM measured after 24 hrs by PI staining based ell Cycle Analysis Kit (KeyGEN) (reference value: 10%); format: functional
A2780 [7] = assay: In vivo antitumor activity against human A2780 cells subcutaneously inoculated in BALB/c-nu mouse assessed as reduction in tumor weight at 3 to 5 mg/kg, ip administered every day for 20 days; format: functional, organism-based; details: dose 3-5 mg/kg, time 20.0 day
A2780 [8] = assay: Induction of cell cycle arrest at S phase in human A2780 cells assessed as increase in cyclin E1 proteins in presence of SB203580 measured at 10 nM after 24 hrs by Western blot analysis; format: functional, cell-based
A2780 [9] = assay: Induction of apoptosis in human A2780 cells assessed as apoptotic rate measured at 2 to 8 nM by Annexin V-FITC/PI flow cytometry; format: functional, cell-based; details: dose 2-8 nM, time 24-72 hrs, TDE = time-dependent effect
A2780 [10] = assay: Induction of cell cycle arrest at S phase in human A2780 cells assessed as increase in cyclin B1 proteins in presence of SB203580 measured at 10 nM after 24 hrs by Western blot analysis; format: functional, cell-based
A2780 [11] = assay: Induction of apoptosis in human A2780 cells assessed as late apoptotic cells at 8 nM measured after 24 to 72 hrs by Annexin V-FITC/PI flow cytometry (reference value: 2.54%); format: functional; details: time 24-72 hrs
[12] = Toxicity in BALB/c-nu mouse subcutaneously inoculated with human A2780 cells assessed as morphological changes of spleen at 3 to 5 mg/kg, ip administered every day for 20 days by HE staining analysis; format: organism-based; details: in vivo, sc, 480 h, dose 3-5 mg/kg, time 20 day
A2780 [13] = assay: Induction of apoptosis in human A2780 cells assessed as decrease in cleaved Bcl-2 level measured at 5 to 20 nM after 12 to 48 hrs by Western blot analysis; format: functional, cell-based; details: dose 5-20 nM, time 12-48 hrs
A2780 [14] = assay: Induction of apoptosis in human A2780 cells assessed as viable cells in presence of bafilomycin A1 at 800 nM measured after 24 hrs by Annexin V-FITC/PI flow cytometry (reference value: 96.1%); format: functional
A2780 [15] = assay: In vivo antitumor activity against human A2780 cells subcutaneously inoculated in BALB/c-nu mouse assessed as inhibition of tumor growth at 3 to 5 mg/kg, ip administered every day for 20 days; format: functional, organism-based; details: dose 3-5 mg/kg, time 20.0 day
A2780 [16] = assay: In vivo antitumor activity against human A2780 cells subcutaneously inoculated in BALB/c-nu mouse assessed as reduction in tumor volume at 3 to 5 mg/kg, ip administered every day for 20 days; format: functional, organism-based; details: dose 3-5 mg/kg, time 20.0 day
A2780 [17] = assay: Induction of cell cycle arrest in human A2780 cells assessed as accumulation of cells at S phase in presence of SB203580 at 4 nM measured after 24 hrs by PI staining based Cell Cycle Analysis Kit (KeyGEN) (reference value: 15%); format: functional
A2780 [18] = assay: Induction of LC3II expression in human A2780 cells in presence of autophagy inhibitor bafilomycin A1 at 5 to 20 nM measured after 24 hrs by Western blot analysis; format: functional, cell-based; details: dose 5-20 nM
A2780 [19] = assay: Induction of apoptosis in human A2780 cells assessed as decrease in cleaved Bcl-xL level measured at 5 to 20 nM after 12 to 48 hrs by Western blot analysis; format: functional, cell-based; details: dose 5-20 nM, time 12-48 hrs
A2780 [20] = assay: Induction of apoptosis in human A2780 cells assessed as necrotic cells in presence of p53 SiRNA 1 at 4 nM measured after 24 hrs by Annexin V-FITC/PI flow cytometry (reference value: 0.39%); format: functional
A2780 [21] = assay: Induction of apoptosis in human A2780 cells assessed as early apoptotic cells at 4 nM measured after 24 hrs by Annexin V-FITC/PI flow cytometry (reference value: 2.82%); format: functional
A2780 [22] = assay: Antiproliferative activity against human A2780 cells assessed as number of fluorescent dots in presence of p53 SiRNA 2 at 4 nM measured after 24 hrs by KitkFluor555 Click-iT EdU Kit staining assay; format: functional, cell-based
A2780 [23] = assay: Induction of apoptosis in human A2780 cells assessed as early apoptotic cells in presence of p53 SiRNA 1 at 4 nM measured after 24 hrs by Annexin V-FITC/PI flow cytometry (reference value: 2.82%); format: functional
[24] = Toxicity in BALB/c-nu mouse subcutaneously inoculated with human A2780 cells assessed as morphological changes of heart at 3 to 5 mg/kg, ip administered every day for 20 days by HE staining analysis; format: organism-based; details: in vivo, sc, 480 h, dose 3-5 mg/kg, time 20 day
A2780 [25] = assay: Induction of cell cycle arrest in human A2780 cells assessed as accumulation of cells at G1 phase at 2 nM measured after 24 hrs by PI staining based ell Cycle Analysis Kit (KeyGEN) (reference value: 53.9%); format: functional
A2780 [26] = assay: Antiproliferative activity against human A2780 cells assessed as number of fluorescent dots in presence of SB203580 at 4 nM measured after 24 hrs by KitkFluor555 Click-iT EdU Kit staining assay; format: functional, cell-based
A2780 [27] = assay: Induction of cell cycle arrest at S phase in human A2780 cells assessed as increase in CDK2 proteins in presence of SB203580 measured at 10 nM after 24 hrs by Western blot analysis; format: functional, cell-based
A2780 [28] = assay: Induction of p38 expression in human A2780 cells at 5 to 20 nM measured after 24 hrs by Western blot analysis; format: functional, cell-based; details: dose 5-20 nM
A2780 [29] = assay: Induction of apoptosis in human A2780 cells assessed as early apoptotic cells in presence of p53 SiRNA 2 at 4 nM measured after 24 hrs by Annexin V-FITC/PI flow cytometry (reference value: 2.82%); format: functional
A2780 [30] = assay: Induction of p38 expression in human A2780 cells in presence of SB203580 at 5 to 20 nM measured after 24 hrs by Western blot analysis; format: functional, cell-based; details: dose 5-20 nM
A2780 [31] = assay: Induction of apoptosis in human A2780 cells assessed as viable cells in presence of p53 SiRNA 2 at 4 nM measured after 24 hrs by Annexin V-FITC/PI flow cytometry (reference value: 94.2%); format: functional

Compound: CC(C)[C@]12O[C@H]1[C@@H]1O[C@]13[C@]1(O[C@H]1C[C@H]1C4=C(CC[C@@]13C)C(=O)OC4)[C@@H]2O [TRIPTOLIDE]
- Activity (A2780 [1]): Dose-Dependent Effect
- Activity (A2780 [2]): 29.4%
- Activity (A2780 [3]): inactive
- Activity (A2780 [4]): Dose-Dependent Effect
- Activity [5]: Non-Toxic
- Activity (A2780 [6]): 30.5%
- Activity (A2780 [7]): Active
- Activity (A2780 [8]): inactive
- Activity (A2780 [9]): Tde
- Activity (A2780 [10]): inactive
- Activity (A2780 [11]): 20%
- Activity [12]: Non-Toxic
- Activity (A2780 [13]): Dose-Dependent Effect
- Activity (A2780 [14]): 90.3%
- Activity (A2780 [15]): Active
- Activity (A2780 [16]): Active
- Activity (A2780 [17]): 19.3%
- Activity (A2780 [18]): inactive
- Activity (A2780 [19]): Dose-Dependent Effect
- Activity (A2780 [20]): 8.18%
- Activity (A2780 [21]): 29.5%
- Activity (A2780 [22]): inactive
- Activity (A2780 [23]): 11.7%
- Activity [24]: Non-Toxic
- Activity (A2780 [25]): 62.6%
- Activity (A2780 [26]): inactive
- Activity (A2780 [27]): inactive
- Activity (A2780 [28]): Active
- Activity (A2780 [29]): 12.6%
- Activity (A2780 [30]): Active
- Activity (A2780 [31]): 66.5%
